The source of these data is patent US11224224B2, “Thiobenzoimidazole as fungicides” (REDAG CROP PROTECTION LTD, priority 2017, dated 2022).

In brackets after ≈: the same amount, converted by molar mass. A value given as a limit tells only on which side of the number the result lay.

Type in all cases: cell-based
One assay relates to Phytophthora cactorum. The assay can be described thus: 96 well plate test (amended agar with spores). Particulars: 96 well plate, 20, 2, 0.2 and 0.02 ppm, 1% PDA, 2 to 3 days (cells marked *), read-out: EC50 Phytophthora spp. (*96 well plate format vs. Phytophthora cactorum). The method, then:
Compounds were screened in 96 well plates with 10 compounds per plate. Each compound was screened using agar amended to 20, 2, 0.2 and 0.02 ppm, with Proline at 50 and 10 ppm and 0.2% DMSO used as controls. Each test concentration and standard was replicated twice on a plate. Compounds were screened against Phytophthora cactorum. The agar used in the test is a 1% PDA. 1000 spores/mL agar were added to the appropriate agar.
A ×10 stock solution in 2% DMSO was produced for each dose i.e. 200, 20, 2 and 0.2 ppm, and 10 μl of this added to the appropriate wells on the plate. An equivalent amount of 2% DMSO and Proline stock at 500 and 100 ppm were added for the controls. To each well 90 μl of the appropriate agar spore suspension was added to give the required final well concentrations. Plates were incubated at room temperature (18° C.) and assessed after 2 to 3 days. The amount of pathogen growth in each well was compared to the DMSO controls and an EC50 concentration was calculated. The results are provided in Table 1 in which G represents an EC50 above 20 ppm, F represents an EC50 of 1-20 ppm and E represents an EC50 less than 1 ppm.

A further assay deals with oomycete plant pathogens. Briefly: Fungicidal activity testing, overall summary. Particulars: summary statement on Table 1. The method, then:
The activity of compounds of the invention was assessed by testing against certain oomycete plant pathogens and representative data are presented in Table 1.

Assay [1] has as its system Pythium ultimum. Briefly: Amended agar assay (PDA), colony growth. On the set-up: key to % control Pythium ultimum 2 ppm: D: no control detected at this concentration; C: up to 50% control; B: from 50 to 99% control; A: a control of greater than 99%, i.e. no detectable colony growth. Particulars: for inhibition of growth at 2 ppm: Globisporangium ultimum, read-out: % control Pythium ultimum 2 ppm.

Assay [2] deals with Pythium ultimum. Briefly: Amended agar assay (PDA), colony growth. Particulars: Globisporangium ultimum; for EC50: amended agar, 5-fold dilutions; for inhibition of growth at 20 ppm: 20 ppm in amended PDA, 18° C., reduction in colony growth vs control plate. The method, then: (§1) Testing was carried out on potato dextrose agar (PDA) amended with each compound at a test concentration of 20 ppm. Amended agar was poured into three replicate 9 cm petri dishes. Each replicate dish was inoculated in the centre with a 5 mm agar plug taken from the leading edge of a culture aged between 2 and 7 days old; the age of the culture was dependant on the growth rate of the pathogen being tested. The test pathogens were Pythium ultimum and Phytophthora cinnamomi. Plates were incubated at 18° C. and the diameter of each colony measured before growth on the fastest growing plate reached the plate edge. This varied between 2 and 7 days depending on the growth rate of test pathogens. The % reduction in colony growth compared to the control plate was calculated for each pathogen. The results are provided in Table 1, in which D represents no control detected at this concentration; C represents up to 50% control; B from 50 to 99% control; and A represents a control of greater than 99%, i.e. no detectable colony growth.
(§2) Alternatively, or in addition, the same assay was conducted at descending test concentrations with 5-fold dilutions typically down to 0.032 ppm though sometimes as low as 0.00026 ppm, and an EC50 (the concentration at which 50% control would be achieved) was determined. The results are provided in Table 1 in which G represents an EC50 above 20 ppm, F represents an EC50 of 1-20 ppm and E represents and EC50 less than 1 ppm.

In another assay the test system is Phytophthora cinnamomi. The assay can be described thus: Amended agar assay (PDA), colony growth. Particulars: Phytophthora cinnamomi; for EC50: amended agar, 5-fold dilutions (cells without *), read-out: EC50 Phytophthora spp.; for inhibition of growth at 20 ppm: 20 ppm in amended PDA, 18° C., reduction in colony growth vs control plate, read-out: % control Phytophthora spp. 20 ppm. As to the method:
as §1, §2

One may read the EC50 as the midpoint of the concentration-response curve.

For `Cn1nnnc1-n1c(SCc2cccc(NCc3ccccc3)n2)nc2ccccc21` [Example 88, N-Benzyl-6-(((1-(1-methyl-1H-tetrazol-5-yl)-1H-benzo[d]imidazol-2-yl)thio)methyl)pyridin-2-amine], in the assay with Phytophthora cactorum, the EC50 was below 1 µg/mL. Further, the “control over the pathogens tested” value in the assay with oomycete plant pathogens is on record as “good to excellent control”. Further, the inhibition of growth at 2 ppm with Pythium ultimum [1] is above 99%.
For the molecule `Clc1cncc(Cl)c1-n1c(SCc2ccccn2)nc2ccccc21` [Example 51], in the assay on Phytophthora cactorum, the EC50 is above 20 µg/mL. The “% control Pythium ultimum 2 ppm” value in the assay on Pythium ultimum [1] is given as “D”.
With `Cn1nnnc1-n1c(SCC(=O)N2CCOCC2)nc2ccccc21` [Example 56], in the assay on Phytophthora cactorum, the EC50 is above 20 µg/mL. Also, the inhibition of growth at 2 ppm in the assay on Pythium ultimum [1] is below 50%.
Regarding `COc1ccc(CSc2nc3ccccc3n2-c2nnnn2C)nc1` [Example 73], the EC50 in the assay on Phytophthora cactorum was in the range of 1 to 20 µg/mL (≈ 2.83 to 56.6 µM). Besides, in the assay with oomycete plant pathogens, the “control over the pathogens tested” value is given as “good to excellent control”. In the assay on Pythium ultimum [1], the inhibition of growth at 2 ppm is above 99%.
The corresponding values for `COc1ccnc(CSc2nc3cc(Cl)ccc3n2-c2nnnn2C)c1` [Example 66] are 1 to 20 µg/mL (≈ 2.58 to 51.6 µM), “good to excellent control” and above 99%.
`Cn1nnnc1-n1c(SCc2cc(C#N)ccn2)nc2ccccc21` [Example 70]: the EC50 with Phytophthora cactorum lay in the range of 1 to 20 µg/mL (≈ 2.87 to 57.4 µM). Also, the “control over the pathogens tested” value in the assay with oomycete plant pathogens is “good to excellent control”. Moreover, the inhibition of growth at 2 ppm in the assay on Pythium ultimum [1] is above 99%.
Turning to `Cn1nnnc1-n1c(SCc2cccc(NC(=O)C(F)(F)Oc3ccccc3)n2)nc2ccc(I)cc21` [Example 44], the EC50 with Phytophthora cactorum is above 20 µg/mL. Besides, the “% control Pythium ultimum 2 ppm” value with Pythium ultimum [1] was “D”.
`Cn1nnnc1-n1c(SCc2cccc(NC(=O)C3CC3)n2)nc2cccc(Cl)c21` [Example 81]: the concentration for a half-maximal effect (EC50) with Phytophthora cactorum is above 20 µg/mL.
Regarding `CCC(=O)Nc1cccc(CSc2nc3ccccc3n2-c2nnnn2C)n1` [Example 36], in the assay with Phytophthora cactorum, the EC50 is above 20 µg/mL. Also, the inhibition of growth at 2 ppm in the assay with Pythium ultimum [1] was in the range of 50 to 99%.
Take `Cn1nnnc1-n1c(SCc2cccc(NC(=O)OC(C)(C)C)n2)nc2cccc(Cl)c21` [Example 83]: in the assay on Phytophthora cactorum, the EC50 was 1 to 20 µg/mL (≈ 2.11 to 42.3 µM). The “control over the pathogens tested” value in the assay on oomycete plant pathogens is on record as “good to excellent control”. Further, in the assay with Pythium ultimum [1], the inhibition of growth at 2 ppm lay within 50 to 99%.
As for `C#Cc1ccc2nc(SCc3ccccn3)n(-c3nnnn3C)c2c1` [Example 64, 6-Ethynyl-1-(1-methyl-1H-tetrazol-5-yl)-2-((pyridin-2-ylmethyl)thio)-1H-benzo[d]imidazole], the EC50 in the assay on Phytophthora cactorum was above 20 µg/mL. In addition, the inhibition of growth at 2 ppm with Pythium ultimum [1] was below 50%.
The corresponding values for `C#Cc1ccc2nc(SCc3cccc(NC(=O)C(F)(F)Oc4ccccc4)n3)n(-c3nnnn3C)c2c1` [Example 65, N-(6-(((6-Ethynyl-1-(1-methyl-1H-tetrazol-5-yl)-1H-benzo[d]imidazol-2-yl)thio)methyl)pyridin-2-yl)-2,2-difluoro-2-phenoxyacetamide] are above 20 µg/mL and 50 to 99%.
Regarding `COc1c(C)cnc(CSc2nc3ccccc3n2-c2nnnn2C)c1C` [Example 38], the EC50 in the assay with Phytophthora cactorum lay in the range of 1 to 20 µg/mL (≈ 2.62 to 52.4 µM). Besides, the “control over the pathogens tested” value in the assay with oomycete plant pathogens is recorded as “good to excellent control”. The inhibition of growth at 2 ppm in the assay on Pythium ultimum [1] is above 99%.
For `Cn1nnnc1-n1c(SCc2ccc(Cl)cn2)nc2ccccc21` [Example 76], in that order: 1 to 20 µg/mL (≈ 2.79 to 55.9 µM), “good to excellent control” and above 99%.
For the molecule `CN(C)C(=O)CSc1nc2ccccc2n1-c1nnnn1C` [Example 58], the EC50 with Phytophthora cactorum was above 20 µg/mL. For the same molecule, the inhibition of growth at 2 ppm with Pythium ultimum [1] is below 50%.
Consider `Cn1nnnc1-n1c(Sc2ncccn2)nc2ccccc21` [Example 60, 1-(1-Methyl-1H-tetrazol-5-yl)-2-(pyrimidin-2-ylthio)-1H-benzo[d]imidazole], for which, in the assay with Phytophthora cactorum, the EC50 is above 20 µg/mL. For the same molecule, in the assay on Pythium ultimum [1], the inhibition of growth at 2 ppm is below 50%.
In the case of `Cn1nnnc1-n1c(SCc2nccc3ccccc23)nc2ccccc21` [Example 68], the EC50 in the assay on Phytophthora cactorum was above 20 µg/mL. For the same molecule, the inhibition of growth at 2 ppm in the assay on Pythium ultimum [1] was 50 to 99%.
For `Cn1nnnc1-n1c(SCc2cccc(NC(=O)C3CC3)n2)nc2ccccc21` [Example 35], in that order: 1 to 20 µg/mL (≈ 2.46 to 49.2 µM) and 50 to 99%.
Consider `Cn1nnnc1-n1c(Sc2ccccn2)nc2ccccc21` [Example 61, 1-(1-Methyl-1H-tetrazol-5-yl)-2-(pyridin-2-ylthio)-1H-benzo[d]imidazole], for which, in the assay with Phytophthora cactorum, the EC50 is above 20 µg/mL. The “% control Pythium ultimum 2 ppm” value with Pythium ultimum [1] was “D”.
`Cn1nnnc1-n1c(SCC(=O)N2CCCC2)nc2ccccc21` [Example 25]: the EC50 in the assay with Pythium ultimum [2] and in the assay on Phytophthora cinnamomi was below 1 µg/mL each time. Besides, the “control over the pathogens tested” value with oomycete plant pathogens was “good to excellent control”. For the same molecule, the inhibition of growth at 2 ppm in the assay on Pythium ultimum [1] was in the range of 50 to 99%.
In the case of `Cn1nnnc1-n1c(SCc2ccncn2)nc2ccccc21` [Example 43], the EC50 in the assay on Phytophthora cactorum is above 20 µg/mL. In addition, the “% control Pythium ultimum 2 ppm” value in the assay with Pythium ultimum [1] is “D”.
In the case of `Cn1nnnc1-n1c(SCc2cccc(NC(=O)C(F)(F)Oc3ccccc3)n2)nc2ccc(F)cc21` [Example 8], the EC50 with Pythium ultimum [2] and with Phytophthora cinnamomi was below 1 µg/mL each time. Further, the “control over the pathogens tested” value with oomycete plant pathogens is “good to excellent control”. In the assay with Pythium ultimum [1], the inhibition of growth at 2 ppm is 50 to 99%.
On to `Cn1nnnc1-n1c(SCc2ccccn2)nc2cccc(Cl)c21` [Example 82], for which the EC50 in the assay on Phytophthora cactorum was above 20 µg/mL. For the same molecule, the inhibition of growth at 2 ppm in the assay on Pythium ultimum [1] fell in the range of 50 to 99%.
On to `COc1cc(F)cc2c1nc(SCc1ccccn1)n2-c1nnnn1C` [Example 85], for which, in the assay with Phytophthora cactorum, the EC50 is above 20 µg/mL. In the assay on Pythium ultimum [1], the inhibition of growth at 2 ppm is above 99%.
As for `Cn1nnnc1-n1c(SCc2cccc(C#N)n2)nc2ccccc21` [Example 72], the EC50 in the assay on Phytophthora cactorum was above 20 µg/mL. In addition, in the assay on Pythium ultimum [1], the “% control Pythium ultimum 2 ppm” value is recorded as “D”.
In the case of `Cn1nnnc1-n1c(SCc2ccccn2)nc2ccccc21` [Example 2], the inhibition of growth at 20 ppm was above 99% in the assay on Pythium ultimum [2] and 50 to 99% in the assay on Phytophthora cinnamomi. For the same molecule, the EC50 was 1 to 20 µg/mL (≈ 3.09 to 61.8 µM) in the assay on Pythium ultimum [2] and below 1 µg/mL in the assay on Phytophthora cinnamomi. In the assay on oomycete plant pathogens, the “control over the pathogens tested” value is “good to excellent control”. For the same molecule, the inhibition of growth at 2 ppm in the assay with Pythium ultimum [1] was above 99%.
Consider `Cn1nnnc1-n1c(SCc2ncc(Cl)cc2Cl)nc2ccccc21` [Example 77], for which the EC50 in the assay with Phytophthora cactorum is above 20 µg/mL. Besides, in the assay on Pythium ultimum [1], the inhibition of growth at 2 ppm was in the range of 50 to 99%.
As to `Cn1nnnc1-n1c(SCC(=O)Nc2ccccc2)nc2ccccc21` [Example 57], in the assay on Phytophthora cactorum, the EC50 is above 20 µg/mL. Moreover, the inhibition of growth at 2 ppm with Pythium ultimum [1] is below 50%.
`COc1cccnc1CSc1nc2ccccc2n1-c1nnnn1C` [Example 71]: the EC50 with Phytophthora cactorum is above 20 µg/mL. The inhibition of growth at 2 ppm in the assay with Pythium ultimum [1] was below 50%.
For the molecule `CC(=O)Nc1cccc(CSc2nc3ccccc3n2-c2nnnn2C)n1` [Example 27, N-(6-(((1-(1-Methyl-1H-tetrazol-5-yl)-1H-benzo[d]imidazol-2-yl)thio)methyl)pyridin-2-yl)acetamide], the inhibition of growth at 20 ppm is above 99% in the assay on Pythium ultimum [2] and 50 to 99% in the assay on Phytophthora cinnamomi. In the assay with oomycete plant pathogens, the “control over the pathogens tested” value was “good to excellent control”.
`CCNC(=O)CSc1nc2ccccc2n1-c1nnnn1C` [Example 55]: in the assay on Phytophthora cactorum, the EC50 is above 20 µg/mL. The inhibition of growth at 2 ppm in the assay with Pythium ultimum [1] was below 50%.
With `Cn1nnnc1-n1c(SCc2ccccn2)nc2ccc(F)cc21` [Example 7], the EC50 with Pythium ultimum [2] and in the assay on Phytophthora cinnamomi was below 1 µg/mL each time. For the same molecule, the “control over the pathogens tested” value with oomycete plant pathogens is recorded as “good to excellent control”.
As to `Cn1nnnc1-n1c(SCc2ccc(C#N)cn2)nc2ccccc21` [Example 74], in the assay on Phytophthora cactorum, the EC50 is above 20 µg/mL. Besides, the inhibition of growth at 2 ppm in the assay with Pythium ultimum [1] was below 50%.
